Patent US20150289513A1, “USE OF A COMPOUND COMPRISING A POLYFLUOROBENZYL MOIETY AGAINST INSECTICIDE-RESISTANT PESTS” (priority 2012, published 2015)

Experiments:
[1] = test system: Anopheles gambiae (target-site-resistant and metabolic-resistant strain: RSPH); assay: Glazed tile contact test, knock-down; type: in vivo
Description: (§1) To produce a suitable preparation Transfluthrin was dissolved in acetone. The active compound solution was pipetted onto a glazed tile and, after drying, adult mosquitoes of the species: • Anopheles gambiae (target-site-resistant and metabolic-resistant strain: RSPH), • Anopheles gambiae (target-site-resitant and metabolic-resistant strain: Tiassalé), • Anopheles gambiae (tar et-site-resitant and metabolic-resistant strain: Akron), • Anopheles gambiae (target-site-resistant strain: VK7), and • Anopheles funestus (metabolic-resistant strain FUMOZ-R) were placed onto the treated tile (each strain was tested on separate tiles). The exposition time was 30 minutes.
(§2) 0.25 hours, 0.5 hours, 1 hour, 2 hour, 3 hour, 4 hour and 24 hours after contact to the treated surface, the knock-down proportion of the test animals in % was determined. Here, 100% (effect) means that all mosquitoes have been killed; 0% (effect) means that none of the mosquitoes have been killed.
(§3) Similarly as outlined in example 2 for Transfluthrin, Metofluthrin efficacy was assessed against • Anopheles gambiae (target-site-resistant and metabolic-resistant strain: RSPH), • Anopheles funestus (metabolic-resistant strain FUMOZ-R), and • Culex quinquefasciatus (metabolic-resistant to DDT; strain P00), with the results shown in Tables 10 to 12. 0.25 hours, 0.5 hours, 1 hour, 2 hour, 3 hour, 4 hour and 24 hours after contact to the treated surface, the knock-down proportion of the test animals in % is depicted in Tables 10 to 12. 100% (effect) means that all mosquitoes have been killed; 0% (effect) means that none of the mosquitoes have been killed.
(§4) Similarly as outlined in example 2 for Transfluthrin, Metofluthrin efficacy was assessed against • Anopheles gambiae (target-site-resistant and metabolic-resistant strain: RSPH), • Anopheles funestus (metabolic-resistant strain FUMOZ-R), and with the results shown in Tables […]. 0.25 hours, 0.5 hours, 1 hour, 2 hour and 3 hours after contact to the treated surface, the knock-down proportion of the test animals in % is depicted in Tables 13 to 14. 100% (effect) means that all mosquitoes have been killed; 0% (effect) means that none of the mosquitoes have been killed.

[2] = test system: Anopheles funestus (metabolic-resistant strain FUMOZ-R); assay: Glazed tile contact test, knock-down; type: in vivo
Description: as §1, §2, §3, §4

[3] = 0.32 g/ha, 0.25 h after contact

## CC=CC1C(C(=O)OCc2c(F)c(F)c(COC)c(F)c2F)C1(C)C (centres unmarked) [Metofluthrin, 2,3,5,6-Tetrafluoro-4-(methoxymethyl)benzyl 2,2-dimethyl-3-(prop-1-en-1-yl)cyclopropanecarboxylate]
[1]; 0.064 g/ha, 0.25 h after contact
  Effect %: 0%
[1]; 0.064 g/ha, 0.5 h after contact
  Effect %: 0%
[1]; 0.064 g/ha, 1 h after contact
  Effect %: 0%
[1]; 0.064 g/ha, 2 h after contact
  Effect %: 0%
[1]; 0.064 g/ha, 3 h after contact
  Effect %: 0%
[1]; 0.064 g/ha, 4 h after contact
  Effect %: 10%
[1]; 0.064 g/ha, 24 h after contact
  Effect %: 20%
[1]; [3]
  Effect %: 0%
[1]; 0.32 g/ha, 0.5 h after contact
  Effect %: 10%
[1]; 0.32 g/ha, 1 h after contact
  Effect %: 10%
[1]; 0.32 g/ha, 2 h after contact
  Effect %: 10%
[1]; 0.32 g/ha, 3 h after contact
  Effect %: 0%
[1]; 0.32 g/ha, 4 h after contact
  Effect %: 10%
[1]; 0.32 g/ha, 24 h after contact
  Effect %: 20%
[1]; 1.6 g/ha, 0.25 h after contact
  Effect %: 100%
[1]; 1.6 g/ha, 0.5 h after contact
  Effect %: 100%
[1]; 1.6 g/ha, 1 h after contact
  Effect %: 100%
[1]; 1.6 g/ha, 2 h after contact
  Effect %: 100%
[1]; 1.6 g/ha, 3 h after contact
  Effect %: 100%
[1]; 1.6 g/ha, 4 h after contact
  Effect %: 100%
[1]; 1.6 g/ha, 24 h after contact
  Effect %: 100%
[1]; 8 g/ha, 0.25 h after contact
  Effect %: 100%
[1]; 8 g/ha, 0.5 h after contact
  Effect %: 100%
[1]; 8 g/ha, 1 h after contact
  Effect %: 100%
[1]; 8 g/ha, 2 h after contact
  Effect %: 100%
[1]; 8 g/ha, 3 h after contact
  Effect %: 100%
[1]; 8 g/ha, 4 h after contact
  Effect %: 100%
[1]; 8 g/ha, 24 h after contact
  Effect %: 100%
[1]; 40 g/ha, 0.25 h after contact
  Effect %: 100%
[1]; 40 g/ha, 0.5 h after contact
  Effect %: 100%
[1]; 40 g/ha, 1 h after contact
  Effect %: 100%
[1]; 40 g/ha, 2 h after contact
  Effect %: 100%
[1]; 40 g/ha, 3 h after contact
  Effect %: 100%
[1]; 40 g/ha, 4 h after contact
  Effect %: 100%
[1]; 40 g/ha, 24 h after contact
  Effect %: 100%
[1]; 200 g/ha, 0.25 h after contact
  Effect %: 100%
[1]; 200 g/ha, 0.5 h after contact
  Effect %: 100%
[1]; 200 g/ha, 1 h after contact
  Effect %: 100%
[1]; 200 g/ha, 2 h after contact
  Effect %: 100%
[1]; 200 g/ha, 3 h after contact
  Effect %: 100%
[1]; 200 g/ha, 4 h after contact
  Effect %: 100%
[1]; 200 g/ha, 24 h after contact
  Effect %: 100%
[1]; 1000 g/ha, 0.25 h after contact
  Effect %: 100%
[1]; 1000 g/ha, 0.5 h after contact
  Effect %: 100%
[1]; 1000 g/ha, 1 h after contact
  Effect %: 100%
[1]; 1000 g/ha, 2 h after contact
  Effect %: 100%
[1]; 1000 g/ha, 3 h after contact
  Effect %: 100%
[1]; 1000 g/ha, 4 h after contact
  Effect %: 100%
[1]; 1000 g/ha, 24 h after contact
  Effect %: 100%
[2]; 0.064 /ha, 0.25 h after contact
  Effect %: 0%
[2]; 0.064 /ha, 0.5 h after contact
  Effect %: 0%
[2]; 0.064 /ha, 1 h after contact
  Effect %: 0%
[2]; 0.064 /ha, 2 h after contact
  Effect %: 0%
[2]; 0.064 /ha, 3 h after contact
  Effect %: 0%
[2]; 0.064 /ha, 4 h after contact
  Effect %: 0%
[2]; 0.064 /ha, 24 h after contact
  Effect %: 20%
[2]; 0.32 /ha, 0.25 h after contact
  Effect %: 0%
[2]; 0.32 /ha, 0.5 h after contact
  Effect %: 0%
[2]; 0.32 /ha, 1 h after contact
  Effect %: 0%
[2]; 0.32 /ha, 2 h after contact
  Effect %: 0%
[2]; 0.32 /ha, 3 h after contact
  Effect %: 0%
[2]; 0.32 /ha, 4 h after contact
  Effect %: 0%
[2]; 0.32 /ha, 24 h after contact
  Effect %: 10%
[2]; 1.6 /ha, 0.25 h after contact
  Effect %: 90%
[2]; 1.6 /ha, 0.5 h after contact
  Effect %: 100%
[2]; 1.6 /ha, 1 h after contact
  Effect %: 100%
[2]; 1.6 /ha, 2 h after contact
  Effect %: 80%
[2]; 1.6 /ha, 3 h after contact
  Effect %: 40%
[2]; 1.6 /ha, 4 h after contact
  Effect %: 40%
[2]; 1.6 /ha, 24 h after contact
  Effect %: 70%
[2]; 8 /ha, 0.25 h after contact
  Effect %: 100%
[2]; 8 /ha, 0.5 h after contact
  Effect %: 100%
[2]; 8 /ha, 1 h after contact
  Effect %: 100%
[2]; 8 /ha, 2 h after contact
  Effect %: 100%
[2]; 8 /ha, 3 h after contact
  Effect %: 100%
[2]; 8 /ha, 4 h after contact
  Effect %: 100%
[2]; 8 /ha, 24 h after contact
  Effect %: 100%
[2]; 40 /ha, 0.25 h after contact
  Effect %: 100%
[2]; 40 /ha, 0.5 h after contact
  Effect %: 100%
[2]; 40 /ha, 1 h after contact
  Effect %: 100%
[2]; 40 /ha, 2 h after contact
  Effect %: 100%
[2]; 40 /ha, 3 h after contact
  Effect %: 100%
[2]; 40 /ha, 4 h after contact
  Effect %: 100%
[2]; 40 /ha, 24 h after contact
  Effect %: 100%
[2]; 200 /ha, 0.25 h after contact
  Effect %: 100%
[2]; 200 /ha, 0.5 h after contact
  Effect %: 100%
[2]; 200 /ha, 1 h after contact
  Effect %: 100%
[2]; 200 /ha, 2 h after contact
  Effect %: 100%
[2]; 200 /ha, 3 h after contact
  Effect %: 100%
[2]; 200 /ha, 4 h after contact
  Effect %: 100%
[2]; 200 /ha, 24 h after contact
  Effect %: 100%
[2]; 1000 /ha, 0.25 h after contact
  Effect %: 100%
[2]; 1000 /ha, 0.5 h after contact
  Effect %: 100%
[2]; 1000 /ha, 1 h after contact
  Effect %: 100%
[2]; 1000 /ha, 2 h after contact
  Effect %: 100%
[2]; 1000 /ha, 3 h after contact
  Effect %: 100%
[2]; 1000 /ha, 4 h after contact
  Effect %: 100%
[2]; 1000 /ha, 24 h after contact
  Effect %: 100%

## CC1(C)[C@H](C=C(Cl)Cl)[C@H]1C(=O)OCc1c(F)c(F)cc(F)c1F [Transfluthrin, (1R,3S)-3-(2,2-Dichlorovinyl)-2,2-dimethyl-1-cyclopropanecarboxylic acid (2,3,5,6-tetrafluorophenyl)methyl ester]
[2]; [3]
  Effect %: 95%
[2]; 0.32 g/ha, 0.5 h after contact
  Effect %: 100%
[2]; 0.32 g/ha, 1 h after contact
  Effect %: 100%
[2]; 0.32 g/ha, 2 h after contact
  Effect %: 60%
[2]; 0.32 g/ha, 3 h after contact
  Effect %: 40%
[2]; 0.32 g/ha, 4 h after contact
  Effect %: 40%
[2]; 1.6 g/ha, 0.25 h after contact
  Effect %: 100%
[2]; 1.6 g/ha, 0.5 h after contact
  Effect %: 100%
[2]; 1.6 g/ha, 1 h after contact
  Effect %: 100%
[2]; 1.6 g/ha, 2 h after contact
  Effect %: 100%
[2]; 1.6 g/ha, 3 h after contact
  Effect %: 95%
[2]; 1.6 g/ha, 4 h after contact
  Effect %: 100%
[2]; 8 g/ha, 0.25 h after contact
  Effect %: 100%
[2]; 8 g/ha, 0.5 h after contact
  Effect %: 100%
[2]; 8 g/ha, 1 h after contact
  Effect %: 100%
[2]; 8 g/ha, 2 h after contact
  Effect %: 100%
[2]; 8 g/ha, 3 h after contact
  Effect %: 100%
[2]; 8 g/ha, 4 h after contact
  Effect %: 100%
[2]; 40 g/ha, 0.25 h after contact
  Effect %: 100%
[2]; 40 g/ha, 0.5 h after contact
  Effect %: 100%
[2]; 40 g/ha, 1 h after contact
  Effect %: 100%
[2]; 40 g/ha, 2 h after contact
  Effect %: 100%
[2]; 40 g/ha, 3 h after contact
  Effect %: 100%
[2]; 40 g/ha, 4 h after contact
  Effect %: 100%
[2]; 200 g/ha, 0.25 h after contact
  Effect %: 100%
[2]; 200 g/ha, 0.5 h after contact
  Effect %: 100%
[2]; 200 g/ha, 1 h after contact
  Effect %: 100%
[2]; 200 g/ha, 2 h after contact
  Effect %: 100%
[2]; 200 g/ha, 3 h after contact
  Effect %: 100%
[2]; 200 g/ha, 4 h after contact
  Effect %: 100%
